12 molecules from patent publication US5637624A, “Ring-substituted 2-amino-1,2,3,4-tetrahydronaphthalenes and 3-aminochromanes” (Eli Lilly and Company, priority 1993, dated 1997) can be followed below.

The target in data set [1] is T1, 5-HT1A receptors (Rattus norvegicus, UniProt P19327).
T1 construct: synaptosomal membranes isolated from cerebral cortex; from tissue; host or cells: cerebral cortex of male Sprague-Dawley rats, crude synaptosomal membranes
T1 sequence (P19327 1-422): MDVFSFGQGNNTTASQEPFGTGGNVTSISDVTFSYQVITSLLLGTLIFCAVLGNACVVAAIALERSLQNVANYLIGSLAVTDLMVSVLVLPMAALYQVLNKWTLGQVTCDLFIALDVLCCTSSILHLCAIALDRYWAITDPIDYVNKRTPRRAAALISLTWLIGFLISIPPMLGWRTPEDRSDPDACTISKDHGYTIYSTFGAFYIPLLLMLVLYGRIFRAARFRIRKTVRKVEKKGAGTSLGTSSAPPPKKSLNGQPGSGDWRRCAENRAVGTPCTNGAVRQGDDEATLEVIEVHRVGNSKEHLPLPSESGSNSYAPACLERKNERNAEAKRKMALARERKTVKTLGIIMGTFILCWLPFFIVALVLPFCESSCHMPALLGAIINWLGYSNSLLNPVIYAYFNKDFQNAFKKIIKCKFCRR
The data set is described as follows: Inhibition of 3H-8-OH-DPAT binding at 5-HT1A in vitro (rat cerebral cortex synaptosomal membranes). Details: species or system Male Sprague-Dawley rats (cerebral cortex). The method, then: This general procedure is set forth in Wong et al., J. Neural Transm. 71:207-218 (1988).
Male Sprague-Dawley rats (110-150 g) from Harlan Industries (Cumberland, Ind.) were fed a Purina Chow ad libitum for at least 3 days before being used in the studies. Rats were killed by decapitation. The brains were rapidly removed, and the cerebral cortices were dissected out at 4° C.
Brain tissues were homogenized in 0.32M sucrose. After centrifugation at 1000×g for 10 min and then at 17000×g for 20 min, a crude synaptosomal fraction was sedimented. The pellet was suspended in 100 vol of 50 mM Tris-HCl, pH 7.4, incubated at 37° C. for 10 min, and centrifuged at 50000×g for 10 min. The process was repeated and the final pellet was suspended in ice-chilled 50 mM Tris-HCl, pH 7.4. By the radioligand binding method, sites specifically labeled by tritiated 8-hydroxy-2-dipropylamino1,2,3,4-tetrahydronaphthalene (^3 H-8-OH-DPAT) have been identified as 5-HT1A receptors.
Binding of (hu 3H-8-OH-DPAT) was performed according to the previously described method [Wong et. al., J. Neural Transm. 64:251-269 (1985)]. Briefly, synaptosomal membranes isolated from cerebral cortex were incubated at 37° C. for 10 min. in 2 ml of 50 mM Tris-HCl, pH 7.4; 10 μM pargyline; 0.6 mM ascorbic acid; and 0.4 nM ^3 H-8-OH-DPAT. Binding was terminated by filtering samples under reduced pressure through glass fiber (GFB) filters. The filters were washed twice with 5 ml of ice cold buffer and placed in scintillation vials with 10 ml of PCS (Amersham/Searle) scintillation fluid. Radioactivity was measured with a liquid scintillation spectrometer. Unlabeled 8-OH-DPAT at 10 μM was also included in separate samples to establish non-specific binding. Specific binding of ^3 H-8-OH-DPAT is defined as the difference of radioactivity bound in the absence and in the presence of 10 μM unlabeled 8-OH-DPAT.

Data set [2] can be described thus: Effectiveness by subcutaneous (s.c.) administration. It is filed as in vivo. The note with it: for minimal effective dose: sc, read-out: minimum effective dose when administered subcutaneously.
Data set [3] relates to 5-hydroxyindoleacetic acid (5-HIAA), a metabolite of 5-HT, in whole brain. Kind of data set: Effectiveness by oral administration: decrease in brain concentration of 5-HIAA. It is filed as in vivo, male Sprague-Dawley rats. The note with it: p.o.; for minimal effective dose: Rattus norvegicus, po, 2 h, read-out: minimum effective dose when administered orally; for Percent Reduction over Control (5-HIAA) / 5-HIAA Concentration in Whole Brain: 2 hours; for 5-HIAA Concentration in Whole Brain: control 1.67 ± 0.08. As for the experimental part: The activity of compounds of this invention when administered orally was determined and compared with literature compounds structurally related to the compounds of this invention. Thus, the test compound was administered to male Sprague-Dawley rats orally (p.o.), five rats being used in each test group. The rats were sacrificed two hours following p.o. administration, and the brain concentration of 5-hydroxyindoleacetic acid (5-HIAA), a metabolite of 5-HT, was measured.

The nature of data set [4]: Hygroscopicity observed on isolation of the salt. It is filed as physicochemical. The note with it: fumarate salt, recrystallized from ethanol/diethyl ether. As for the experimental part: To a solution of water (60 mL) which contains methanesulfonic acid (0.16 mL, 2.33 mMol) was added 2-di-propylamino-8-methylthio-1,2,3,4-tetrahydronaphthalene (630 mg, 2.33 mMol). To this solution was added a solution of sodium metaperiodate (550 mg, 2.57 mMol) in water (10 mL), and the reaction mixture was stirred for two days at room temperature. The reaction mixture was made basic (NH4 OH) and extracted with dichloromethane. The organic extracts were combined, dried (Na2 SO4) and concentrated in vacuo to give the crude title compound as a light yellow oil. Purification by flash chromatography (3% methanol in dichloromethane+tr. NH4 OH) gave the desired product (580 mg, 85%) as a colorless oil. The fumarate salt was formed. […] Drying in a vacuum dessicator (60° C., 18 hours) gave a colorless glass (260 mg, m.p. =63° C.).

Counter-ions that a name gives are not always drawn. Like-named read-outs stand apart in the source and are kept apart here.

With `CCCN(CCC)[C@@H]1CCc2cccc(SC)c2[C@@H]1C` (relative stereo) [Example 8, cis-1-Methyl-2-di-n-propylamino-8-thiomethyl-1,2,3,4-tetrahydronaphthalene], in data set [1] (0.4 nM 3H-8-OH-DPAT, rat cerebral cortex synaptosomal membranes, 37° C., 10 min, pH 7.4, read-out: IC50, 5HT1a (concentration required to inhibit the binding of 3H-8-OH-DPAT by 50%)), the IC50 was 297 nM.
Turning to `CCCN(CCC)C1CCc2cccc(SC)c2C1` (stereo not drawn) [Example 1, 2-Di-n-propylamino-8-thiomethyl1,2,3,4-tetrahydronaphthalene], the results for the minimal effective dose in data set [2] and in data set [3] were about 0.3 mg/kg and about 1 mg/kg, respectively. Further, the “potency relative to 8-OH-DPAT, subcutaneous” value in data set [2] (vs 8-OH-DPAT) is “about ten-fold less potent”. The “Percent Reduction over Control (5-HIAA)” value in data set [3] (0.1 mg/Kg) was 0%; in data set [3] (1 mg/Kg), 13%; in data set [3] (10 mg/Kg), 25%. Besides, the “5-HIAA Concentration in Whole Brain” value came to 1.56 ± 0.04 nmol/g in data set [3] (0.1 mg/Kg), 1.45 ± 0.03 nmol/g in data set [3] (1 mg/Kg) and 1.25 ± 0.06 nmol/g in data set [3] (10 mg/Kg). The “minimum effective dose relative to 8-OH-DPAT, oral” value in data set [3] (vs 8-OH-DPAT) is “about ten-fold less”. In addition, the IC50 in data set [1] was found to be 0.3 nM.
For `CCCN(CCC)C1CCc2cccc(SCC)c2C1` (stereo not drawn) [Example 2, 2-Di-n-propylamino-8-thioethyl-1,2,3,4-tetrahydronaphthalene], the IC50 in data set [1] stood at 30.7 nM.
Same read-out and setting: with `CCCN(CCC)C1CCc2cccc(Sc3ccccc3)c2C1` (stereo not drawn) [Example 3, 2-Di-n-propylamino-8-thiophenyl-1,2,3,4-tetrahydronaphthalene] the figure was 22.2 nM; with `CCCN(CCC)C1CCc2cccc(SCc3ccccc3)c2C1` (stereo not drawn) [Example 4, 2-Di-n-propylamino-8-thiobenzyl-1,2,3,4-tetrahydronaphthalene], 2.8 nM.
For the molecule `CCCN(CCC)C1CCc2cccc([S+](C)[O-])c2C1` (stereo not drawn) [Example 5, 2-Di-n-propylamino-8-methylsulfinyl-1,2,3,4-tetrahydronaphthalene], the hygroscopicity result in data set [4] was “extremely hygroscopic”. For the same molecule, the IC50 in data set [1] is 71.1 nM.
`CCCN(CCC)C1CCc2cccc(S(C)(=O)=O)c2C1` (stereo not drawn) [Example 6, 2-Di-n-propylamino-8-methylsulfonyl-1,2,3,4-tetrahydronaphthalene] came in with an IC50 in data set [1] of 10 nM.
Still for that read-out and setting: with `CSc1cccc2c1CC(N(C)C)CC2` (stereo not drawn) [Example 7, 2-Dimethylamino-8-thiomethyl-1,2,3,4-tetrahydronaphthalene] the figure was 21 nM.
As to `CCCN(CCC)C1CCc2cccc(O)c2C1` (stereo not drawn) [Example 8-OH-DPAT, 8-hydroxy-2-dipropylamino1,2,3,4-tetrahydronaphthalene, reference compound], the minimal effective dose is about 0.03 mg/kg in data set [2] and about 10 mg/kg in data set [3]. Besides, the “Percent Reduction over Control (5-HIAA)” value turned out to be 0% in data set [3] (0.1 mg/Kg), 0% in data set [3] (1 mg/Kg) and 16% in data set [3] (10 mg/Kg). For the same molecule, the “5-HIAA Concentration in Whole Brain” value in data set [3] (0.1 mg/Kg) stood at 1.62 ± 0.07 nmol/g; in data set [3] (1 mg/Kg), 1.75 ± 0.05 nmol/g; in data set [3] (10 mg/Kg), 1.40 ± 0.06 nmol/g.
In data set [1], `CCCN(CCC)C1CCc2cccc(Sc3ccc(C)cc3)c2C1` (stereo not drawn) [Example 9] gave an IC50 of 59 nM.
Same read-out and setting: with `CCCN(CCC)C1CCc2cccc(Sc3ccccn3)c2C1` (stereo not drawn) [Example 10] the figure was 9 nM.
Still for that read-out and setting: the result for `CCCN(CCC)C1COc2cccc(SC)c2C1` (stereo not drawn) [Example 11, 3-(Di-n-propylamino)-5-methylthio-chromane hydrochloride] reads 2.5 nM.
